Measurements reported in US10570152B2, “Antibacterial therapeutics and prophylactics” (VYOME BIOSCIENCES PVT. LTD., priority 2015, dated 2020).
Converted amounts (≈) assume the structure as drawn. “And” between values parts separate entries of the source, which are not always exact repeats. Equal values may be shown once.

Columns and labels:
Gram negative pathogens = assay: MIC interpretations, Gram negative pathogens; format: cell-based; conditions: most of the Gram negative pathogens
Procedure: MIC of DART molecules were determined by micro broth dilution as per CLSI guidelines. Bacterial strains were cultured in Brain Heart Infusion Agar (BHIA) at 37° C. for 24 h. For MIC determination, BHI broth (100 μl) was added to each of the wells of a 96 well plate. 100 μl of broth containing drug was added to the first well (1A to 1H) and thereafter serial (double) dilutions were carried out for up to 10 wells (column 1 to column 10 of the 96 well plate). Bacterial inoculum was prepared by adjusting the bacterial culture turbidity to 0.5 McFarland standard (approximately 1.5×10^8 cells/ml) and further diluted (100 times with sterile BHI broth). Diluted bacterial suspension (100 μl) was added to each well except sterility control wells (column 12 of 96 well plate). The plates were incubated at 37° C. for 24 h. The MIC of the test compound was measured after addition of Alamar blue dye.

[1] = system: S. epidermidis ATCC 35984 biofilm; assay: Biofilm disruption assay (MTT) with compounds and compound loaded beads; format: cell-based; conditions: Staphylococcus epidermidis, ATCC35984, read-out: Concentration of compounds (mg/ml) for 50% biofilm disruption
Procedure: S. epidermidis ATCC 35984 was grown in Brain Heart Infusion Agar (BHIA) at 37° C. for 24 h. The loop full of bacterial culture was suspended in sterile water and matched the turbidity against 0.5 McFarland Standard (approximately 1.5×10^8), 100 μl of culture suspension was added into each well of the 96 well plate and plates were incubated at 37° C. for 48 h for biofilm formation. The biofilm formed in each well was washed twice with sterile water to remove the planktonic cells. Then biofilm was treated with 100 yl of BHI broth suspended with various concentrations of DART molecules, followed by incubation of the plates at 37° C. for 24 h. Subsequently the biofilm in the wells were stained with MTT reagent and the plates were incubated at 37° C. for 2 h. The precipitate formed in the wells was dissolved in 100 μl of dimethyl sulfoxide (DMSO) and the absorbance was measured at 600 nm in multi well plate reader to determine the minimum biofilm inhibitory concentration (MBIC). The MBIC was calculated by subtracting the absorbance value of each drug treated sample from that of 48 h growth control.

[2] = system: P. acnes CCARM 9010 induced paw inflammation; assay: Anti-inflammatory action in vivo, rat paw edema model; design: species or system Sprague Dawley rats; conditions: topical, 24 h post initiation of treatment (32 h post induction)
From the text: Host inflammation is one of the crucial clinical feature of most of the indications associated with bacterial infections. The inventors used an exemplary compound of the invention (Compound 2) to test the anti-inflammatory effects in vivo using rat paw edema model. Inflammation was induced using one of the opportunistic pathogens Propionibacterium acnes prevalent in implant associated infections. Sprague Dawley rats were used for the study and infection was induced by P. acnes CCARM 9010. An inoculum of 1×10^9 CFU/ml of the heat killed bacteria was injected to the plantar side of the right hind paw (˜2×10^7 CFU/paw) except in sham control where saline was injected. Treatments were initiated 8 h post injection by applying the test formulation of Compound 2 (30 mg) twice daily to the plantar surface of the right hind paw and gently rubbing 50 times with the index finger. Comparators Acnedap (dapsone 5% gel) and adapalene gel (Adaferin®) were applied twice daily and once daily based on clinical prescription dosage. Paw sizes were measured in millimeters using Vernier calipers at the start of the infection, 8 h post infection, and 24 h post initiation of treatment (32 h post induction of inflammation). The change in paw size, due to inflammation, was evaluated as the difference between the paw size measured at each time point and the basal paw size measured immediately before edema induction.

## Cc1ncc([N+](=O)[O-])n1CCN1CCN(c2cc3c(cc2F)c(=O)c(C(=O)O)c2n3C(C)S2)CC1 (stereo not drawn) [Compound 2, 6-Fluoro-1-methyl-7-(4-(2-(2-methyl-5-nitro-1H-imidazol-1-yl)ethyl)piperazin-1-yl)-4-oxo-1H,4H-[1,3]thiazeto[3,2-a]quinoline-3-carboxylic acid]
Gram negative pathogens
  activity (MIC) range: 4 to 8 µg/mL
[1]
  EC50: 0.5 to 1 mg/mL (≈ 995 to 1990 µM)
[2]
  Inhibition of inflammation (%) at 24 h post treatment: 43% and 43.20%
